The assay deals with Aconitinarrhythmie der Ratte. As to the kind of experiment: Antiarrhythmic activity, aconitine-induced arrhythmia in the anaesthetised rat (oral dosing, aconitine i.v. infusion 60 min later). The format is in vivo, Ratten (Stamm: Sprague Dawley). To be noted: for ED50: Rattus norvegicus, po, 1 h, read-out: Wirksame Dosis ED 50 %; for R.W. = Relative Wirksamkeit, bezogen auf Chinidin = 1,00: rat, per os, relative potency from ED 50 %. The protocol: Zur Bestimmung der antiarrhythmischen Wirksamkeit werden die Substanzen Ratten (Stamm: Sprague Dawley, Gewicht 200 bis 250 g) oral appliziert. 45 min später werden die Tiere mit Thiobutabarbital-Natrium (100,0 mg/kg i.p.) narkotisiert. Als arrhythmogene Substanz dient Aconitin, das 60 min nach Substanzapplikation i.v. infundiert wird (Dosierungsgeschwindigkeit: 0,005 mg/kg x min). Bei nicht behandelten Tieren (N = 52) treten nach 2,74 + 0,07 min im EKG Arrhythmien auf, deren Eintritt durch Antiarrhythmika dosisabhängig verzögert werden kann.
Aus den linearen Beziehungen zwischen log Dosis (mg/kg) der Prüfsubstanzen und der relativen Verlängerung der Aconitin--Infusionsdauer (Δ%) wird die Dosis bestimmt, welche die Infusionsdauer um 50 % verlängert (ED 50 %).
Zur weiteren Charakterisierung der Substanzen wird aus der in den Experimenten verwendeten dezimalgeometrischen Dosenfolge (Faktor [formula] ) die antiarrhythmische Wirkung der maximal tolerierten Dosis bestimmt.

Structures can show the parent of a compound that is named as a salt.

Take `CNCC(CCCN(C)CCc1ccc(OC)c(OC)c1)(c1cc(OC)c(OC)c(OC)c1)C(C)C` (centres unmarked) [Beispiel 33, 1-Methylamino-2-isopropyl-2-(3,4,5-trimethoxyphenyl)--5-[(3,4-dimethoxyphenethyl)methylamino]-pentan-dihydrochlorid]: the ED50 was determined as 21.5 mg/kg and the “R.W. = Relative Wirksamkeit, bezogen auf Chinidin = 1,00” value (“R.W. = Relative Wirksamkeit” below) is recorded as 2,02.
On to `CC(C)NCC(CCCN(C)CCc1ccccc1)(c1ccccc1)C(C)C` (centres unmarked) [Beispiel 11, 1-Isopropylamino-2-isopropyl-2-phenyl-5-(phenethyl)-methylamino-pentan-dihydrochlorid], for which the ED50 was determined as 6.42 mg/kg.
Same read-out and setting: in the case of `CNCC(CCCN(C)CCc1ccc(OC)c(OC)c1)(c1ccc(OC)c(OC)c1)C(C)C` (centres unmarked) [Beispiel 32, 1-Methylamino-2-isopropyl-2-(3,4-dimethoxyphenyl)-5--[(3,4-dimethoxyphenethyl)methylamino]-pentan-dihydrochlorid] it was 33.8 mg/kg.
Still for that read-out and setting: in the case of `CCCCNCC(CCCN(C)CCc1ccc(OC)c(OC)c1)(c1cc(OC)c(OC)c(OC)c1)C(C)C` (centres unmarked) [Beispiel 23] it was 33.8 mg/kg.
As to `CN(C)CC(C)(CCCN(C)CCc1ccccc1)c1ccccc1` (centres unmarked) [Beispiel 35, 1-Dimethylamino-2-methyl-2-phenyl-5-(phenethyl)-methyl-amino-pentan], the ED50 stood at 8.02 mg/kg and the “R.W. = Relative Wirksamkeit” value was 5,42.
On the same counts, the results for `CCNCC(CCCN(C)CCc1ccc(OC)c(OC)c1)(c1ccc(OC)c(OC)c1)C(C)C` (centres unmarked) [Beispiel 15, 1-Ethylamino-2-isopropyl-2-(3,4-dimethoxyphenyl)-5--[(3,4-dimethoxyphenethyl)methylamino]-pentan-dihydrochlorid] are 17.1 mg/kg and 2,54.
The corresponding values for `COc1ccc(CCN(C)CCCC(CNC(C)C)(c2ccc(OC)c(OC)c2)C(C)C)cc1OC` (centres unmarked) [Beispiel 17, 1-Isopropylamino-2-isopropyl-2-(3,4-dimethoxyphenyl)-5--[(3,4-dimethoxyphenethyl)methylamino]-pentan-dihydrochlorid] are 26.1 mg/kg and 1,67.
On the same counts, the results for `CCCCC(CCCN(C)CCc1ccccc1)(CN(C)C)c1ccccc1` (centres unmarked) [Beispiel 36, 1-Dimethylamino-2-(n-butyl)-2-phenyl-5-(phenethyl)--methylamino-pentan] are 8.66 mg/kg and 5,02.
`CN(C)CC(CCCN(C)CCc1ccccc1)c1ccccc1` (centres unmarked) [Beispiel 34, 1-Dimethylamino-2-phenyl-5-(phenethyl)methylamino--pentan]: the ED50 stood at 14.7 mg/kg and the “R.W. = Relative Wirksamkeit” value was 2,96.
On the same counts, the results for `COc1ccc(CCN(C)CCCC(CNC(C)C)(c2cc(OC)c(OC)c(OC)c2)C(C)C)cc1OC` (centres unmarked) [Beispiel 22, 1-Isopropylamino-2-isopropyl-2-(3,4,5-trimethoxyphenyl)-5-[(3,4-dimethoxyphenethyl)methylamino]--pentan-dihydrochlorid] are 24.8 mg/kg and 1,75.
On the same counts, the results for `CCC(C)NCC(CCCN(C)CCc1ccc(OC)c(OC)c1)(c1cc(OC)c(OC)c(OC)c1)C(C)C` (centres unmarked) [Beispiel 24] are 17 mg/kg and 2,56.
The corresponding values for `CCCCNCC(CCCN(C)CCc1ccccc1)(c1ccccc1)C(C)C` (centres unmarked) [Beispiel 12, 1-(n-Butyl)amino-2-isopropyl-2-phenyl-5-(phenethyl)-methylamino-pentan-dihydrochlorid] are 22.5 mg/kg and 1,93.
`CCCNCC(CCCN(C)CCc1ccc(OC)c(OC)c1)(c1cc(OC)c(OC)c(OC)c1)C(C)C` (centres unmarked) [Beispiel 21, 1-(n-Propyl)amino-2-isopropyl-2-(3,4,5-trimethoxyphenyl)-5-[(3,4-dimethoxyphenethyl)methylamino]--pentan-dihydrochlorid]: the ED50 is 23.4 mg/kg and the “R.W. = Relative Wirksamkeit” value is given as 1,86.
